#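 Assay format: 96-well plates, 48-hour exposure. The concentration for 50% growth inhibition is given as GI50.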 The source made the active and inactive calls. Rule as the data show it: active = GI50 up to about 1.1 µM and inactive = higher.
# How the values were obtained:
# Assay in all cases: NCI-60 cell line screen, 48 h
# [1] = system: HT-29
# [2] = system: MDA-MB-435
# [3] = system: NCI-H226
# [4] = system: CCRF-CEM
# [5] = system: LOX IMVI
# [6] = system: MDA-MB-231
# [7] = system: OVCAR-4
# [8] = system: M14
# [9] = system: OVCAR-3
# [10] = system: IGROV-1
# [11] = system: SF-268
# [12] = system: SF-295
# [13] = system: UO-31
# [14] = system: RXF 393
# [15] = system: NCI-H460
# [16] = system: U-251
# [17] = system: SK-MEL-28
# [18] = system: HL-60
# [19] = system: K562
# [20] = system: SK-MEL-2
Structure (SMILES),GI50 [1],GI50 [2],GI50 [3],GI50 [4],GI50 [5],GI50 [6],GI50 [7],GI50 [8],GI50 [9],GI50 [10],GI50 [11],GI50 [12],GI50 [13],GI50 [14],GI50 [15],GI50 [16],GI50 [17],GI50 [18],GI50 [19],GI50 [20]
COc1ccc(/C=C2\CCC(CNc3ccc(OC)cc3)C2=O)cc1 (centres undefined),14.3 µM (inactive),20.8 µM (inactive),> 100 µM (inactive),3.37 µM (inactive),12.9 µM (inactive),17.8 µM (inactive),23.4 µM (inactive),16.1 µM (inactive),17.4 µM (inactive),13.9 µM (inactive),14.6 µM (inactive),31 µM (inactive),17.9 µM (inactive),16.2 µM (inactive),47.8 µM (inactive),18.7 µM (inactive),18.9 µM (inactive),3.09 µM (inactive),–,–
CCCCNC(=S)N/C=C1\C(=O)Nc2ccccc2C1=O,> 10 µM (inactive),> 10 µM (inactive),> 10 µM (inactive),> 10 µM (inactive),–,> 10 µM (inactive),> 10 µM (inactive),> 10 µM (inactive),> 10 µM (inactive),> 10 µM (inactive),> 10 µM (inactive),> 10 µM (inactive),> 10 µM (inactive),> 10 µM (inactive),> 10 µM (inactive),> 10 µM (inactive),> 10 µM (inactive),> 10 µM (inactive),> 10 µM (inactive),–
Cc1nc2ccccc2n1Cc1nnc(-c2ccccc2)o1,52.5 µM (inactive),0.104 µM (active),–,> 100 µM (inactive),25.1 µM (inactive),> 100 µM (inactive),–,> 100 µM (inactive),> 100 µM (inactive),72.9 µM (inactive),> 100 µM (inactive),> 100 µM (inactive),> 100 µM (inactive),35.9 µM (inactive),91 µM (inactive),> 100 µM (inactive),> 100 µM (inactive),> 100 µM (inactive),33.9 µM (inactive),> 100 µM (inactive)
O=C1N(c2ccccc2)C(=S)/C(=C/c2ccc(Cl)cc2)N1c1ccc(Cl)cc1,59.3 µM (inactive),35.6 µM (inactive),–,18.1 µM (inactive),22.2 µM (inactive),27 µM (inactive),28.2 µM (inactive),61.9 µM (inactive),35.2 µM (inactive),41.3 µM (inactive),46.9 µM (inactive),38.4 µM (inactive),28.5 µM (inactive),33.2 µM (inactive),> 100 µM (inactive),28.1 µM (inactive),34.8 µM (inactive),32.5 µM (inactive),41.9 µM (inactive),43.7 µM (inactive)
C=C(C(=O)OC)[C@@H]1C[C@@H](OC(C)=O)C2=C[C@H](C[C@@]3(C)O[C@@H]3C3=CC(C)=C(O3)[C@H]1OC(C)=O)OC2=O [BIPINNATIN I],6.24 µM (inactive),16.8 µM (inactive),90.8 µM (inactive),0.0429 µM (active),16.3 µM (inactive),20.9 µM (inactive),35.2 µM (inactive),14.8 µM (inactive),–,15.3 µM (inactive),36.1 µM (inactive),27 µM (inactive),16 µM (inactive),12 µM (inactive),23.6 µM (inactive),23.1 µM (inactive),16.2 µM (inactive),–,6.84 µM (inactive),31 µM (inactive)
CN1C(=O)C(CC(=O)O)NC1=S (centres undefined),> 100 µM (inactive),> 100 µM (inactive),–,> 100 µM (inactive),> 100 µM (inactive),> 100 µM (inactive),–,> 100 µM (inactive),> 100 µM (inactive),99.5 µM (inactive),> 100 µM (inactive),> 100 µM (inactive),> 100 µM (inactive),> 100 µM (inactive),> 100 µM (inactive),> 100 µM (inactive),> 100 µM (inactive),> 100 µM (inactive),> 100 µM (inactive),> 100 µM (inactive)
C=CC(C)CCC(C/C=C(\C)CCC=C(C)C)C(=C)CCCC(C)C (centres undefined),> 100 µM (inactive),> 100 µM (inactive),–,> 100 µM (inactive),> 100 µM (inactive),> 100 µM (inactive),> 100 µM (inactive),> 100 µM (inactive),> 100 µM (inactive),> 100 µM (inactive),> 100 µM (inactive),> 100 µM (inactive),> 100 µM (inactive),> 100 µM (inactive),> 100 µM (inactive),> 100 µM (inactive),> 100 µM (inactive),> 100 µM (inactive),> 100 µM (inactive),> 100 µM (inactive)
O=C1C(Cl)=C(Cl)C(Cl)(Cl)C(Cl)C1(Cl)Cl (centres undefined),24.5 µM (inactive),23.1 µM (inactive),–,27.3 µM (inactive),19.4 µM (inactive),20 µM (inactive),–,25.6 µM (inactive),17.7 µM (inactive),17 µM (inactive),19.6 µM (inactive),21.2 µM (inactive),15.8 µM (inactive),20 µM (inactive),19.9 µM (inactive),19 µM (inactive),23.5 µM (inactive),18.4 µM (inactive),24.6 µM (inactive),15.8 µM (inactive)
CN(C)CCCNc1cc(O)c2c(c1O)C(=O)c1ccccc1C2=O,11 µM (inactive),15.5 µM (inactive),18.2 µM (inactive),–,9.53 µM (inactive),12.6 µM (inactive),12.1 µM (inactive),5.38 µM (inactive),11.3 µM (inactive),10.6 µM (inactive),16.8 µM (inactive),13.1 µM (inactive),1.69 µM (inactive),4.59 µM (inactive),6.46 µM (inactive),13.2 µM (inactive),16.4 µM (inactive),–,2.79 µM (inactive),19.8 µM (inactive)
N#Cc1nc(-c2ccccn2)c(-c2ccccn2)nc1C#N,2.82 µM (inactive),2.7 µM (inactive),0.593 µM (active),2.69 µM (inactive),1.03 µM (active),10.7 µM (inactive),1.79 µM (inactive),1.59 µM (inactive),3.79 µM (inactive),1.43 µM (inactive),1.25 µM (inactive),0.811 µM (active),1.3 µM (inactive),3.58 µM (inactive),0.47 µM (active),2.32 µM (inactive),3.96 µM (inactive),–,5.85 µM (inactive),3.59 µM (inactive)
CCOC(=O)C(CS)NC(=O)CCCCCCCC(=O)NC(CS)C(=O)OCC (centres undefined),> 100 µM (inactive),> 100 µM (inactive),> 100 µM (inactive),21.2 µM (inactive),86.9 µM (inactive),> 100 µM (inactive),> 100 µM (inactive),> 100 µM (inactive),> 100 µM (inactive),> 100 µM (inactive),–,> 100 µM (inactive),> 100 µM (inactive),–,> 100 µM (inactive),> 100 µM (inactive),> 100 µM (inactive),25.8 µM (inactive),> 100 µM (inactive),36.9 µM (inactive)
c1cncc(CNCCN2CCNCC2)c1,> 100 µM (inactive),> 100 µM (inactive),> 100 µM (inactive),–,> 100 µM (inactive),> 100 µM (inactive),> 100 µM (inactive),> 100 µM (inactive),> 100 µM (inactive),> 100 µM (inactive),> 100 µM (inactive),> 100 µM (inactive),> 100 µM (inactive),> 100 µM (inactive),> 100 µM (inactive),> 100 µM (inactive),> 100 µM (inactive),–,> 100 µM (inactive),> 100 µM (inactive)
COP(C)(=O)C1=CCN(C(=O)OCC[Si](C)(C)C)CC1 (centres undefined),> 100 µM (inactive),> 100 µM (inactive),> 100 µM (inactive),> 100 µM (inactive),> 100 µM (inactive),> 100 µM (inactive),> 100 µM (inactive),> 100 µM (inactive),> 100 µM (inactive),> 100 µM (inactive),> 100 µM (inactive),> 100 µM (inactive),> 100 µM (inactive),> 100 µM (inactive),> 100 µM (inactive),> 100 µM (inactive),> 100 µM (inactive),–,–,> 100 µM (inactive)
CNc1ccc([S+]([O-])Nc2ccccc2)cc1 (centres undefined),97.7 µM (inactive),34 µM (inactive),21.2 µM (inactive),> 100 µM (inactive),41.9 µM (inactive),46.1 µM (inactive),94.2 µM (inactive),–,51.4 µM (inactive),41.6 µM (inactive),25.9 µM (inactive),41.5 µM (inactive),23.9 µM (inactive),–,55.8 µM (inactive),36.2 µM (inactive),> 100 µM (inactive),26.1 µM (inactive),34.8 µM (inactive),86.3 µM (inactive)
O=C(O)Cc1ccc2c(c1)/C(=C1/Nc3ccccc3C1=O)C(=O)N2,38.8 µM (inactive),36.1 µM (inactive),60.8 µM (inactive),34.4 µM (inactive),20 µM (inactive),> 100 µM (inactive),21.9 µM (inactive),36.6 µM (inactive),14.1 µM (inactive),0.355 µM (active),58.2 µM (inactive),80.5 µM (inactive),49 µM (inactive),17.2 µM (inactive),56.2 µM (inactive),39.6 µM (inactive),54.3 µM (inactive),–,19.2 µM (inactive),40.9 µM (inactive)

# Source: ChEMBL document CHEMBL1201862, “PubChem BioAssay data set” (2004)
